Experimental data reported in ChEMBL document CHEMBL1201862, “PubChem BioAssay data set” (2004).
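Five concentrations, 48 hours, 96-well plates. GI50 marks 50% less growth.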 Calls of active or inactive are those of the source. Cut-off read from the data, not from the text of the source: active = GI50 up to about 1.1 µM and inactive = higher.

What was measured:
Assay in all cases: NCI tumour cell line growth inhibition, 48 h
[1] = system: M14
[2] = system: OVCAR-4
[3] = system: DU-145
[4] = system: CAKI-1
[5] = system: RXF 393
[6] = system: 786-0
[7] = system: MOLT-4
[8] = system: OVCAR-3
[9] = system: SK-OV-3
[10] = system: COLO 205
[11] = system: KM12
[12] = system: SF-295
[13] = system: OVCAR-8
[14] = system: NCI-H23
[15] = system: EKVX
[16] = system: HOP-92
[17] = system: BT-549
[18] = system: HOP-62
[19] = system: SNB-19
[20] = system: IGROV-1
[21] = system: A498
[22] = system: UO-31
[23] = system: A549
[24] = system: RPMI-8226
[25] = system: SF-539
[26] = system: NCI-H522
[27] = system: UACC-62
[28] = system: SW-620
[29] = system: ACHN
[30] = system: MDA-MB-231
[31] = system: HL-60
[32] = system: Malme-3M
[33] = system: SK-MEL-5
[34] = system: SF-268
[35] = system: HCC 2998
[36] = system: SN12C
[37] = system: SR
[38] = system: CCRF-CEM
[39] = system: NCI-H226
[40] = system: HCT-116
[41] = system: NCI-H460
[42] = system: T47D
[43] = system: HT-29
[44] = system: TK-10
[45] = system: SK-MEL-28
[46] = system: SK-MEL-2
[47] = system: K562
[48] = system: LOX IMVI
[49] = system: PC-3
[50] = system: U-251
[51] = system: UACC-257
[52] = system: SNB-75
[53] = system: NCI/ADR-RES
[54] = system: MCF7
[55] = system: MDA-N
[56] = system: MDA-MB-435
[57] = system: Hs-578T
[58] = system: HCT-15

`O=C1c2ccccc2C(=O)N1CCCC(=O)n1cc(F)c(=O)[nH]c1=O` was tested, and the GI50 [1] was 14.5 µM (inactive), the GI50 [2] was > 100 µM (inactive) and the GI50 [3] was 10.1 µM (inactive). The GI50 [4] was 6.05 µM (inactive), the GI50 [5] was > 47.4 µM (inactive) and the GI50 [6] was 14.4 µM (inactive). For the same molecule, the GI50 [7] was 35.4 µM (inactive), the GI50 [8] was > 22.7 µM (inactive) and the GI50 [9] was > 91 µM (inactive). For the same molecule, the GI50 [10] was 6.62 µM (inactive), the GI50 [11] was 6.73 µM (inactive) and the GI50 [12] was 49.1 µM (inactive). The GI50 [13] was 10.7 µM (inactive), the GI50 [14] was 11.9 µM (inactive) and the GI50 [15] was > 58.3 µM (inactive). For the same molecule, the GI50 [16] was > 21.4 µM (inactive), the GI50 [17] was > 100 µM (inactive) and the GI50 [18] was 8.26 µM (inactive). The GI50 [19] was 49.1 µM (inactive), the GI50 [20] was 3.4 µM (inactive) and the GI50 [21] was 4.69 µM (inactive). For the same molecule, the GI50 [22] was 11.4 µM (inactive), the GI50 [23] was 3.6 µM (inactive) and the GI50 [24] was 5.06 µM (inactive). For the same molecule, the GI50 [25] was 7 µM (inactive), the GI50 [26] was 37.4 µM (inactive) and the GI50 [27] was 23.6 µM (inactive). The GI50 [28] was > 72.6 µM (inactive), the GI50 [29] was 15.8 µM (inactive) and the GI50 [30] was > 100 µM (inactive). For the same molecule, the GI50 [31] was 7.78 µM (inactive), the GI50 [32] was 27.9 µM (inactive) and the GI50 [33] was 12.3 µM (inactive). The GI50 [34] was 69.2 µM (inactive), the GI50 [35] was 0.82 µM (active) and the GI50 [36] was > 26.1 µM (inactive). For the same molecule, the GI50 [37] was 5.53 µM (inactive), the GI50 [38] was 18.6 µM (inactive) and the GI50 [39] was 38.5 µM (inactive). For the same molecule, the GI50 [40] was 6.24 µM (inactive), the GI50 [41] was 2.68 µM (inactive) and the GI50 [42] was > 33.7 µM (inactive). For the same molecule, the GI50 [43] was 4.54 µM (inactive), the GI50 [44] was > 41.2 µM (inactive) and the GI50 [45] was > 100 µM (inactive). The GI50 [46] was > 100 µM (inactive), the GI50 [47] was 24.9 µM (inactive) and the GI50 [48] was 6.18 µM (inactive). For the same molecule, the GI50 [49] was 30.1 µM (inactive), the GI50 [50] was > 100 µM (inactive) and the GI50 [51] was > 75.2 µM (inactive). For the same molecule, the GI50 [52] was 37 µM (inactive), the GI50 [53] was 7.98 µM (inactive) and the GI50 [54] was 6.21 µM (inactive). For the same molecule, the GI50 [55] was 16.1 µM (inactive), the GI50 [56] was > 37.1 µM (inactive) and the GI50 [57] was > 100 µM (inactive). It also gave a GI50 [58] of 8.41 µM.
